In patent US20050244936A1, “Hydantoin-racemase” (DEGUSSA AG, priority 1999, published 2005):

Experiments:
HyuA = assay: Substrate specificity of HyuA: racemization of 5-substituted hydantoins by ORD polarimetry; assay type: biochemical, Arthrobacter aurescens DSM 3747; details: substrate conc. 0.9 mM; 100% racemase activity corresponds to 313 μ/mg by standard assay
Protocol: Racemization of the 5-substituted hydantoins BH, IMH and MTEH by HyuA was examined (Tab. 2).
Enzyme assays. Racemization of L-BH was measured by ORD-polarimerty (Model 341, Perkin Elmer Bodenseewerk, Überlingen, Germany) at a wavelength of 295 nm in the standard assay for racemase enzyme activity. 3 MM L-BH was dissolved in 0.1 M Tris, pH 3 at 45° C. in an ultrasonic waterbath, cooled to room temperature and the pH adjusted to pH 8.5 with 3 M NaOH. To 1 ml substrate solution 0.1 ml enzyme, diluted in 0.1 M Tris, pH 8.5, was added and the change in optical rotation determined at 37° C. by polarimetry (Teves et al., Fresenius' J. Anal. Chem. 1999, 363, 738-743). The racemization of MTEH and IMH by. HyuA was determined at substrate concentrations of 0.9 mM and recorded by ORD at 253 nm and 334 nm. The specific activities were calculated from initial reaction rates which were determined according to Teves et al. (1999). For determination of enzyme activity by HPLC, 1 mM L-IMH was dissolved as described above. The mixture containing 900 μl enzyme solution was incubated 5 min at 37° C. The reaction was stopped by addition of 400 μl 14% trichloroacetic acid and centrifugation in an Eppendorf centrifuge at full speed. 100 μl of the sample were diluted with 0.9 ml 0.1 M TrisHCl, pH 8.5, and D-IMH and L-IMH in the supernatant were separated by HPLC (Thermoseparation Products, Darmstadt, Germany) by injection of 20 μl sample into a Chiralpak WH-column (0.46×25 cm; Daicel Chemicals Industris LTD, Griesheim, Germany). The column was equilibrated with 0.25 mM CuSO4, pH 5.5. The flow rate was 1 ml/min at 50° C. and IMH detected at 254 nm. The chemical racemization of the substrate was taken into account. Racemization of […] substrate per minute was defined as one unit enzyme.

racemase HyuA = assay: Initial velocities at different concentrations of L-MTEH (kinetic plot); assay type: biochemical, Arthrobacter aurescens DSM 3747; details: FIG. 6
Protocol: The KM values of IMH and BH could not be determined due to the limited solubility of the substrates. Instead the initial velocities at different concentrations of L-MTEH were measured. […] Even at low substrate concentrations (>5 mM) inhibition is observed.
Enzyme assays. Racemization of L-BH was measured by ORD-polarimerty (Model 341, Perkin Elmer Bodenseewerk, Überlingen, Germany) at a wavelength of 295 nm in the standard assay for racemase enzyme activity. 3 MM L-BH was dissolved in 0.1 M Tris, pH 3 at 45° C. in an ultrasonic waterbath, cooled to room temperature and the pH adjusted to pH 8.5 with 3 M NaOH. To 1 ml substrate solution 0.1 ml enzyme, diluted in 0.1 M Tris, pH 8.5, was added and the change in optical rotation determined at 37° C. by polarimetry (Teves et al., Fresenius' J. Anal. Chem. 1999, 363, 738-743). The racemization of MTEH and IMH by. HyuA was determined at substrate concentrations of 0.9 mM and recorded by ORD at 253 nm and 334 nm. The specific activities were calculated from initial reaction rates which were determined according to Teves et al. (1999). For determination of enzyme activity by HPLC, 1 mM L-IMH was dissolved as described above. The mixture containing 900 μl enzyme solution was incubated 5 min at 37° C. […] The flow rate was 1 ml/min at 50° C. and IMH detected at 254 nm. […]

[1] = room temperature, pH 8.5, 20 hour; cited from earlier work

| substrate concentration at which inhibition of the racemase is observed (racemase HyuA) | SMILES | Relative Activity (HyuA) | fraction racemized to D-IMH (chemical racemization) [1] |
| --- | --- | --- | --- |
| – | CSCCC1NC(=O)NC1=O [D-MTEH] | 8% | – |
| > 5 mM | CSCCC1NC(=O)NC1=O [L-MTEH] | 7% | – |
| – | O=C1NC(=O)[C@@H](Cc2ccccc2)N1 [D-BH, D-Benzylhydantoin] | 95% | – |
| – | O=C1NC(=O)[C@@H](Cc2c[nH]c3ccccc23)N1 [D-IMH] | 12% | – |
| – | O=C1NC(=O)[C@H](Cc2c[nH]c3ccccc23)N1 [L-IMH] | 13% | about 10% |
